From patent US9765037B2, “Compositions and methods for treating toxoplasmosis, cryptosporidiosis, and other apicomplexan protozoan related diseases” (University of Washington Through its Center for …, priority 2010, dated 2017)
pEC50, pIC50: −log10 of the molar value. ≈ marks a conversion by molar mass, not a printed value. Read-outs that look alike come from different tables or passages of the source. One block for each molecule: values may come before it.

What was measured:
[1] = tested on: glioma derived (SF539); assay: Growth inhibition of human cell line SF539; conditions: for GI50: read-out: GI50 (μM) SF539
[2] = tested on: human promyelocytic leukemia (HL-60); assay: Growth inhibition of human cell line HL-60; conditions: for GI50: read-out: GI50 (μM) HL60
[3] = tested on: colorectal carcinoma (HC 2998); assay: Growth inhibition of human cell line HC 2998; conditions: for GI50: read-out: GI50 (μM) HCC2998
[4] = tested on: human lymphocyte (CRL8155); assay: Growth inhibition of human cell line CRL8155; conditions: for GI50: read-out: GI50 (μM) CRL8155
[5] = molecular target: PfCDPK4 (Plasmodium falciparum (isolate 3D7), UniProt Q8IBS5); assay: biochemical
[6] = tested on: glioma derived (SF539); conditions: human
[7] = Solubility in buffers of various pH; type: physicochemical; conditions: buffer
[8] = tested on: human fibroblast; assay: Human fibroblast replication / cytotoxicity (Alamar blue); type: cell-based
[9] = molecular target: HckKD (Homo sapiens (Human), UniProt P08631); assay: Tyrosine kinase IC50, HckKD; type: biochemical; conditions: Table 9
[10] = molecular target: PfCDPK1 (Plasmodium falciparum (isolate 3D7), UniProt P62344); assay: biochemical
[11] = molecular target: SRC (Homo sapiens (Human), UniProt P12931); conditions: read-out: IC50 (μM) Src
[12] = molecular target: SrcKD (Homo sapiens (Human), UniProt P12931); assay: Tyrosine kinase IC50, SrcKD; type: biochemical
[13] = molecular target: ABL (Homo sapiens (Human), UniProt P00519); type: biochemical
[14] = molecular target: AblKD (Homo sapiens (Human), UniProt P00519); assay: Tyrosine kinase IC50, AblKD; type: biochemical; conditions: Table 9
[15] = Blood levels after oral gavage dosing of mice (LC-MS); conditions: for AUC / Cmax / Tmax: in vivo
[16] = in vivo; conditions: mouse, ip
[17] = mouse, in vivo, ip, 50 mg/kg
[18] = tested on: P. berghei expressing GFP; assay: P. berghei transmission from treated mice to A. stephensi
[19] = tested on: P. berghei expressing PfCDPK4-2x-myc; assay: Exflagellation in blood of treated mice infected with P. berghei expressing PfCDPK4-2x-myc; type: in vivo, Plasmodium berghei
[20] = tested on: C. parvum; assay: Immunosuppressed (SCID-beige) mouse C. parvum model; type: in vivo, Cryptosporidium parvum; conditions: SCID-beige mice; oral gavage once a day, days 3-7 and 10-14; 29 and 150 at 50 mg/kg/day, Paromomycin 2 g/kg/day
Procedure: Shown are mean of the parasite numbers detected in 25 mg of stool from each mouse, by qRT-PCR.

[21] = molecular target: CpCDPK1 (Cryptosporidium parvum (strain Iowa II), UniProt A3FQ16); assay: biochemical; type: biochemical; conditions: for IC50: read-out: IC50 (μM) CpCDPK1
[22] = molecular target: Src3D (Homo sapiens (Human), UniProt P12931); assay: biochemical
[23] = molecular target: Abl3D (Homo sapiens, UniProt P00519); assay: Tyrosine kinase IC50, Abl3D; type: biochemical; conditions: Table 9
[24] = pH 6.5, aqueous buffer, read-out: Experimental Solubility pH 6.5

Compound: Nc1ncnc2c1c(-c1ccc3cc(OCc4ccccc4)ccc3c1)nn2CC1CCNCC1 [Compound 34, 3-(6-(benzyloxy)naphthalen-2-yl)-1-(piperidin-4-ylmethyl)-1H-pyrazolo[3,4-d]pyrimidin-4-amine]
- Cell Toxicity SF539, % at 10 μM [1]: 104%
- Cell Toxicity HL60, % at 10 μM [2]: <30% at 10 μM
- Cell Toxicity HCC2998, % at 10 μM [3]: 30% at 10 μM
- Cell Toxicity CRL8155, % at 10 μM [4]: <30% at 10 μM
- pEC50 [5]: 7.52
- Cell Toxicity LD50 SF539 [6]: 6 µM
- solubility [7, 24]: 23 µM (≈ 10.7 µg/mL)
- Observed HFF Toxicity (T at concentration) [8]: T at 100 μM
- IC50 [9]: 1.61 µM
- pEC50 [10]: 7.57

Compound: Nc1ncnc2c1c(Cc1cccc3ccccc13)nn2CC1CCNCC1 [Compound 5h, 3-(naphthalen-1-ylmethyl)-1-(piperidin-4-ylmethyl)-1H-pyrazolo[3,4-d]pyrimidin-4-amine]
- Cell Toxicity SF539, % at 10 μM [1]: <30% at 10 μM
- GI50 ([1]; human cell line SF539): > 10 µM
- Cell Toxicity HL60, % at 10 μM [2]: <30% at 10 μM
- GI50 ([2]; human cell line HL60): > 10 µM
- Cell Toxicity HCC2998, % at 10 μM [3]: <30% at 10 μM
- GI50 ([3]; human cell line HCC2998): > 10 µM
- Cell Toxicity CRL8155, % at 10 μM [4]: <30% at 10 μM
- GI50 ([4]; human cell line CRL8155): > 10 µM
- pEC50 [5]: 6.81
- IC50 [11]: > 20 µM
- IC50 ([12]; Table 9): > 20 µM
- IC50 [9]: > 10 µM
- IC50 [13]: > 20 µM
- IC50 [14]: > 20 µM

Compound: CCOc1ccc2cc(-c3nn(CC4CCNCC4)c4ncnc(N)c34)ccc2c1 [Compound 29, 3-(6-ethoxynaphthalen-2-yl)-1-(piperidin-4-ylmethyl)-1H-pyrazolo[3,4-d]pyrimidin-4-amine]
- Blood level, First Peak ([15]; mice, 40 mg/kg oral gavage 3x daily for 4 days, 1 hr after first dose, mean±SD, N=3): 50 ± 80 nM
- Blood level, Fourth D4 Peak ([15]; mice, 40 mg/kg oral gavage 3x daily for 4 days, 1 hr after third dose of d4, mean±SD, N=3): 6600 ± 1600 nM
- Blood level, First Trough ([15]; mice, 40 mg/kg oral gavage 3x daily for 4 days, 17 hours after dosing, beginning of d2, mean±SD, N=3): 0 ± 0 nM
- concentration at 17 h ([15]; mouse, blood, po, 40 mg/kg): 0 nM
- AUC ([15]; mouse, po): 20 µM·h
- Cmax ([15]; mouse, po): 6640 nM
- Tmax ([15]; mouse, po): 120 min
- AUC ([15]; mouse, po, 10 mg/kg): 0.95 µM·h
- Cmax ([15]; mouse, po, 10 mg/kg): 200 nM
- Tmax ([15]; mouse, po, 10 mg/kg): 140 min
- AUC ([15]; mouse, po, 50 mg/kg): 5.18 µM·h
- Cmax ([15]; mouse, po, 50 mg/kg): 1100 nM
- Tmax ([15]; mouse, po, 50 mg/kg): 160 min
- AUC ([16]; 10 mg/kg): 3.18 µM·h
- Cmax ([16]; 10 mg/kg): 700 nM
- Tmax ([16]; 10 mg/kg): 30 min
- AUC ([16]; 50 mg/kg): 29.5 µM·h
- Cmax ([16]; 50 mg/kg): 8200 nM
- Tmax ([16]; 50 mg/kg): 30 min
- concentration at 20 h ([16]; 50 mg/kg): 410 nM
- peak plasma concentration [17]: 8.2 µM
- plasma levels for 20 hours post-treatment [17]: exceeding 0.4 μM
- Cell Toxicity SF539, % at 10 μM [1]: <30% at 10 μM
- formation of oocysts in A. stephensi fed on treated mice ([18]; mice treated i.p., Compound 29 at 10 mg/kg, mosquitoes fed 30 minutes after dosing): completely blocked the formation of oocysts
- impact on asexual parasitaemia or gametocyte rates ([18]; mice, 10 mg/kg i.p.): no impact
- Cell Toxicity HL60, % at 10 μM [2]: <30% at 10 μM
- Cell Toxicity HCC2998, % at 10 μM [3]: <30% at 10 μM
- Cell Toxicity CRL8155, % at 10 μM [4]: <30% at 10 μM
- exflagellation 20 hours after dosing ([19]; 50 mg/kg i.p.): some exflagellation was observed
- exflagellation in blood samples from treated mice ([19]; 50 mg/kg i.p., 30 minutes post-injection and up to 14 hours later): completely suppressed exflagellation
- exflagellation in treated mice ([19]; mice, 10 mg/kg i.p.): sufficient to block exflagellation
- duration of complete suppression of exflagellation ([19]; mice, 50 mg/kg i.p.): 14 h
- solubility ([7]; aqueous buffer, pH 2.0, read-out: Experimental Solubility pH 2.0): 34 µM (≈ 13.7 µg/mL)
- solubility [7, 24]: 47 µM (≈ 18.9 µg/mL)
- solubility ([7]; pH 7.4, aqueous buffer, read-out: Experimental Solubility pH 7.4): 49 µM (≈ 19.7 µg/mL)
- parasite burden rebound after treatment [20]: slowly
- parasites in stool (qRT-PCR) at the end of treatment [20]: not detected
- IC50 ([12]; Table 9): > 20 µM
- IC50 [9]: > 10 µM
- IC50 ([21]; Table 8): 0.0035 µM
- pIC50 ([21]; read-out: Enzymatic Assay IC50 CpCDPK1): 9.00
- pEC50 [10]: 6.45
- IC50 [14]: > 20 µM

Compound: COc1ccc2cc(-c3nn(C(C)C)c4ncnc(N)c34)ccc2c1 [Compound 7q, 1-isopropyl-3-(6-methoxynaphthalen-2-yl)-1H-pyrazolo[3,4-d]pyrimidin-4-amine]
- pIC50 [22]: 6.24
- AUC ([15]; mouse, po): 35.3 µM·h
- Cmax ([15]; mouse, po): 19700 nM
- Tmax ([15]; mouse, po): 30 min
- AUC [16]: 4.6 µM·h
- Cmax [16]: 3800 nM
- Tmax [16]: 30 min
- Cell Toxicity SF539, % at 10 μM [1]: <30% at 10 μM
- GI50 [1]: > 10 µM
- Cell Toxicity HL60, % at 10 μM [2]: <30% at 10 μM
- GI50 [2]: > 10 µM
- Cell Toxicity HCC2998, % at 10 μM [3]: <30% at 10 μM
- GI50 [3]: > 10 µM
- Cell Toxicity CRL8155, % at 10 μM [4]: <30% at 10 μM
- GI50 [4]: > 10 µM
- pEC50 [5]: 7.38
- IC50 [11]: 0.77 µM
- IC50 [12]: 0.77 µM
- IC50 [9]: 0.375 µM
- IC50 [21]: 0.005 µM
- pEC50 [10]: 6.68

- IC50 [23]: ~10 µM
- IC50 ([12]; Table 9): > 10 µM
Compound: Nc1nc2ccc(C(=O)c3ccccc3)cc2[nH]1 [Compound 92]
